# Tested on: HCT116 cells
# Experiment: pH-dependent cellular uptake (flow cytometry, fluorescence)
# Assay type: cell-based, human
# Conditions: fluorescence and flow cytometry
# Procedure: HCT116 cells were exposed to PMNs, InS-NPs and Ce6 at different pHs to verify their cellular uptake respectively. The cells were incubated for 2 h, washed, harvested, and re-suspended with DPBS. In vitro cellular uptake was quantified using a flow cytometer (Beckman, San Jose, Calif., USA). For each sample 10,000 cells (gated events) were counted, and free Ce6 fluorescence was detected with logarithmic settings (FL4; λem=670 nm). Cells were counted as positive if their fluorescence (FL4) was higher than that of cells from an untreated cell suspension. Each experiment was analyzed statistically using the CXP Analysis Program.
# The tumor cellular uptake of PMNs was monitored at different pH conditions (pH 7.4 and 6.8) using a KODAK In vivo Image Station (Image Station 4000 MM; Kodak, New Haven, Conn., USA) and a flow cytometer (Beckman, San Jose, Calif., USA). HCT116 cells (1×10^5 cells/mL) were incubated with each sample for 2 h in RPMI-1640 medium (pH 7.4 or 6.8, with 1% penicillin-streptomycin) at 37° C. and then analyzed. To ameliorate photobleaching during microscope observation, a drop of anti-fade mounting solution (5% N-propyl gallate, 47.5% glycerol, and 47.5% Tris-HCl, pH 8.4) was added to the cells.
substance,measurement,value
chlorin E6 [Ce6],cellular uptake at pH 6.8 versus pH 7.4,not affected by changes in pH

# Reference: patent US9765187B2, “MRI contrasting agent for contrasting cancer cell” (SNU R&DB FOUNDATION, priority 2014, dated 2017)
